Tests used:
growing rats = experiment: Cardioprotective effect against the toxicity of doxorubicin (heart rate and cardiac output in rats); type: in vivo; details: relative to saline + saline control
Protocol: The following compounds were selected to be tested for their cardioprotetive effect against the toxicity of doxorubicin. The compounds tested were: 1,3-bis(3,5-dioxopiperazin-1-yl)-propane 1,2-bis(2-methyl-3,5-dioxopiperazin-1-yl)-ethane 1,2-bis(3,5-dioxopiperazin-1-yl)-butane.
Groups of growing rats were injected intra-peritoneally (i.p.) with 100 mg/kg or 400 mg/kg body weight of the compound. After 1 hour, doxorubicin solution was injected intravenously (i.v.) at a concentration of 4 mg/kg body weight. Other groups of rats were injected with saline (i.p.) followed after 1 hour by saline (i.v.) or with saline (i.p.) followed after 1 hour by doxorubicin solution (i.v.) as controls. The cardiotoxicity of doxorubicin and the protection supplied by the compounds was assessed by measuring the heart rate and cardiac output relative to the saline + saline control. Cardiac output was measured by injecting ^99mTc into the heart and measuring the rate at which the isotope was cleared from the heart. Heart rate was measured in the standard manner.
The results are shown in the Table below from which it will be seen that each of the compounds results in an improvement in cardiac output and heart rate as compared with the depressed values which occur when only doxorubicin is used. TABLE

[1] = result in words, Herman et al, Res. Commun. Chem. Pathol. Pharmacol. 1985, 48, 39; cited from earlier work
[2] = result in words, Herman et al, Adv. Pharmacol. Chemother. 1982, 19, 249; cited from earlier work
[3] = saline i.p., 1 hour later doxorubicin 4 mg/kg i.v. alone
[4] = compound 100 mg/kg i.p., 1 hour later doxorubicin 4 mg/kg i.v.
[5] = compound 100 mg/kg i.p., 1 hour later doxorubicin 4 mg/kg i.v., 99mTc clearance from the heart

| Structure (SMILES) | Relative Heart Rate (growing rats; [4]) | Relative Cardiac Output (growing rats; [5]) | further results |
| --- | --- | --- | --- |
| COc1cccc2c1C(=O)c1c(O)c3c(c(O)c1C2=O)C[C@@](O)(C(=O)CO)C[C@@H]3O[C@H]1C[C@H](N)[C@H](O)[C@H](C)O1 [doxorubicin, reference compound] | – | – | Relative Cardiac Output (growing rats; [3]): 0.41 ± 0.04; Relative Heart Rate (growing rats; [3]): 0.65 ± 0.19 |
| O=C1CN(CCN2CC(=O)N(CN3CCOCC3)C(=O)C2)CC(=O)N1CN1CCOCC1 [bimolane] | – | – | protective effect against acute daunorubicin toxicity [1]: give protection against the lethal effects of daunorubicin |
| O=C1CN(CCCN2CC(=O)NC(=O)C2)CC(=O)N1 [1,3-bis(3,5-dioxopiperazin-1-yl)-propane] | 0.81 ± 0.12 | 0.56 ± 0.06 | – |
| CC(CN1CC(=O)NC(=O)C1)N1CC(=O)NC(=O)C1 (stereo not drawn) [ICRF 159] | – | – | reducing high dose daunorubicin toxicity versus doxorubicin toxicity [2]: consistently more effective in reducing high dose daunorubicin toxicity than doxorubicin toxicity |
| CCC(CN1CC(=O)NC(=O)C1)N1CC(=O)NC(=O)C1 (racemic) [1,2-bis(3,5-dioxopiperazin-1-yl)-butane, dl-1,2-bis(3,5-dioxopiperazin-1-yl)-butane] | 0.98 ± 0.03 | 0.70 ± 0.05 | Relative Heart Rate (growing rats; compound 400 mg/kg i.p., 1 hour later doxorubicin 4 mg/kg i.v.): 0.92 ± 0.04; Relative Cardiac Output (growing rats; compound 400 mg/kg i.p., 1 hour later doxorubicin 4 mg/kg i.v., 99mTc clearance from the heart): 0.67 ± 0.05 |
| CC1C(=O)NC(=O)CN1CCN1CC(=O)NC(=O)C1C (stereo not drawn) [1,2-bis(2-methyl-3,5-dioxopiperazin-1-yl)-ethane] | 0.99 ± 0.03 | 0.62 ± 0.05 | – |

From patent EP0409499A2, “Pharmaceutical compositions” (BRITISH TECHNOLOGY GROUP LIMITED, priority 1989, dated 1991)
